# Results from patent US20080058709A1, “METHOD AND APPARATUS THAT ASSOCIATE THE PARENTERAL INJECTION OF MEDICAL GRADE CARBON DIOXIDE (CO2) CONCOMITANTLY WITH THE APPLICATION OF INFRARED RADIATION FROM THERMAL AND/OR LIGHT SOURCES USING CONTROL BY MEANS OF CUTANEOUS AND/OR BODY THERMOMETRY” (priority 2006, published 2008).
# “Also recorded” adds a separate entry of the source.
# What was measured:
# [1] = system: patients that had arterial circulatory disease with intermittent claudication; conditions: transcutaneous, bathing in waters rich in CO2; cited from earlier work
# [2] = system: patients with vascular and painful morbidities; assay: subcutaneous and intradermal CO2 injections in patients with vascular and painful morbidities (clinical observation); format: in vivo, human
# Source text: It was perceived that the beneficial therapeutic effects in the areas of diffusion of CO2 after its injection subcutaneously and intradermally explored the initial “aesthetic” objectives.
# [3] = system: bone tissues and related connective tissues; assay: application of the invention in direct therapies on bone and related connective tissues; format: in vivo, human; conditions: CO2 infusion combined with infrared radiation controlled by thermometry
# Source text: (§1) Along these lines, the applicant has conjectured several clinical applications for using the method and controlled apparatuses of carbon dioxide infusion (A1) combined with the emission of infrared radiation (4) controlled by cutaneous/body thermometry (5) in an interface apparatus (A2) in vascular diseases, painful syndromes, lo treatment of osteoarticular tissues, and induction of focal reactive oxygen therapy. Following tests and observations, the applicant obtained the following results with the application of the present invention: […]
# patients = assay: infrared radiation applied concomitantly with parenteral CO2 injection: pain during gas infusion; format: in vivo, human
# Description: The intensity of radiation, however, could cause skin lesions; thus, during the infusions, he started to use as a safety parameter the assessment of skin temperature on the sites were irradiation was applied.
# (§2) a.1) Following antisepsis and placement of limiting devices (G) (tourniquets), initiate the application of 02 to 03 minutes of infrared radiation in the area to be treated with thermal or light infrared radiation emitters (4), prior to initiating the injection of the CO2 gas (2);
# c.1) Monitoring with the infrared emitting source (4) the treated areas (AT) that are receiving the injection of CO2 gas (2), throughout the procedure; in the areas with skin lesions of ischemic etiology, more caution should be exercised when using this radiation.
# [4] = system: patients allergic to iodine contrast media; conditions: intra-arterial injections, even at large volumes; cited from earlier work
# acupuncture points = assay: application of the invention in acupuncture (carboxyacupuncture); format: in vivo, human; conditions: CO2 infusion combined with infrared radiation controlled by thermometry
# Source text: Technical variants in the mode of application of the product have also been developed by the proponent, such as: the use of limiting devices or tourniquets (G) at several points of the lower limbs in order to limit the expansion of the gas; distribution and homogenization of the CO2 in areas of interest by means of manual massages with oils, creams, or ointments; as well as the development of specific injection techniques into alternative parenteral routes (intramuscular, subfascial, intrasynovial, and other), as well as new methodologies of injection of the gas (carboxyacupuncture, sclerocarboxytherapy, and carboembolotherapy), all representing methods to optimize the effects and the use of the proposed apparatus (1).
# as §1
# [5] = system: Vascular Disease—Miscellaneous; assay: application of the invention in vascular disease, miscellaneous (healing, grafts, flaps); format: in vivo, human; conditions: CO2 infusion combined with infrared radiation controlled by thermometry
# Source text: The present developed method includes two main stages:
# Stage I) Application of the medical grade carbon dioxide—CO2—in vascular diseases and painful syndromes consists of the following stages:
# d) Injections of the gas (2) via the parenteral route (3), standardized by the type of vasculopathy, painful syndrome, or induction of focal reactive oxygen therapy, adjusted by the type of treatment, and automatically controlled by the interfaces of the apparatus (A2);
# Stage II) Application of infrared radiation consists of the following stages:
# as §2, §1
compound,measurement,setting,value
"O=C=O [CO2, carbon dioxide]",walking distance,[1],improving the walking distance
same,vascular and painful symptoms following injections of the gas,"[2]; CO2 injected subcutaneously and intradermally, patients treated for aesthetics",showed improvement of vascular and painful symptoms
same,therapeutic effects after moving injection sites closer to the painful morbidities and the circulatory system,[2]; modified sites and forms of parenteral injection of CO2,clear intensification of the initially observed therapeutic effects
same,results in direct therapies on bone tissues and related connective tissues,[3],Facilitates intraoperatory dissection of tendinous sheaths; also recorded: Minimizes post tenolysis adhesions
same,analgesia during the infusion of the gas,patients,produced an important analgesia
same,adverse reactions,[4],no significant adverse reactions even at large volumes
same,results in Acupuncture (Carboxyacupuncture),acupuncture points,Greater local effect at systemic and cranial acupuncture points; also recorded: Greater action spectrum on less sensitive meridians; also recorded: Greater longevity of treatment
same,results in Vascular Disease—Miscellaneous,[5],Accelerates the cicatricial process in lesions difficult to heal; also recorded: Accelerates the cicatricial process in areas of circulatory deficit; also recorded: Augments donor areas of free skin grafts; also recorded: Circulatory improvement in advancement or myocutaneous flaps
